Toxic doses and inconclusive results are not listed.
System: L1210 leukemia ip in BDF1 mice, survival T/C
Test: NCI In Vivo Anticancer Drug Screen. Data for tumor model L1210 Leukemia (intraperitoneal) in B6D2F1 (BDF1) mice
Settings: endpoint: mean survival time, higher = longer survival
Method in brief: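 Survival endpoint. Drug-treated group vs vehicle group, expressed as T divided by C. Tumor passaged by transplantation.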

[1] = dose: 100.0 mg/kg/injection, schedule: Q04DX003 (ip), vehicle: saline with Tween-80
[2] = dose: 12.5 mg/kg/injection, schedule: Q01DX009 (ip), vehicle: Klucel (hydroxypropylcellulose) (HPC)
[3] = dose: 25.0 mg/kg/injection, schedule: Q01DX009 (ip), vehicle: Klucel (hydroxypropylcellulose) (HPC)
[4] = dose: 50.0 mg/kg/injection, schedule: Q01DX009 (ip), vehicle: Klucel (hydroxypropylcellulose) (HPC)
[5] = dose: 50.0 mg/kg/injection, schedule: Q01DX009 (ip), vehicle: saline
[6] = dose: 100.0 mg/kg/injection, schedule: Q01DX001 (ip), vehicle: other
[7] = dose: 100.0 mg/kg/injection, schedule: Q01DX001 (ip), vehicle: saline
[8] = dose: 100.0 mg/kg/injection, schedule: Q01DX009 (ip), vehicle: saline
[9] = dose: 200.0 mg/kg/injection, schedule: Q01DX001 (ip), vehicle: other
[10] = dose: 200.0 mg/kg/injection, schedule: Q01DX009 (ip), vehicle: saline
[11] = dose: 300.0 mg/kg/injection, schedule: Q01DX001 (ip), vehicle: saline
[12] = dose: 400.0 mg/kg/injection, schedule: Q01DX001 (ip), vehicle: other
[13] = dose: 100.0 mg/kg/injection, schedule: Q04DX002 (ip), vehicle: saline with Tween-80
[14] = dose: 200.0 mg/kg/injection, schedule: Q04DX002 (ip), vehicle: saline with Tween-80
[15] = dose: 400.0 mg/kg/injection, schedule: Q04DX002 (ip), vehicle: saline with Tween-80
[16] = dose: 100.0 mg/kg/injection, schedule: Q04DX003 (ip), vehicle: saline
[17] = dose: 200.0 mg/kg/injection, schedule: Q04DX003 (ip), vehicle: saline

O=C(COc1cccc(Cl)c1)NCc1ccc(NC(=O)CBr)cc1 was tested, and the T/C (dose: 25.0 mg/kg/injection, schedule: Q01DX001 (ip), vehicle: gum acacia) was 94 % of control, the T/C (dose: 50.0 mg/kg/injection, schedule: Q01DX001 (ip), vehicle: gum acacia) was 96 % of control and the T/C (dose: 100.0 mg/kg/injection, schedule: Q01DX001 (ip), vehicle: gum acacia) was 98 % of control. For the same compound, the T/C (dose: 200.0 mg/kg/injection, schedule: Q01DX001 (ip), vehicle: gum acacia) was 90 % of control and the T/C (dose: 400.0 mg/kg/injection, schedule: Q01DX001 (ip), vehicle: gum acacia) was 90 % of control.

O=C1OCC/C1=C\C1CC=CCC1 (stereo not given) was tested, and the T/C (dose: 67.0 mg/kg/injection, schedule: Q04DX003 (ip), vehicle: saline with Tween-80) was 96 % of control, the T/C [1] was 88 % of control and the T/C (dose: 150.0 mg/kg/injection, schedule: Q04DX003 (ip), vehicle: saline with Tween-80) was 96 % of control.

In the case of CN=C(Nc1ccccn1)c1ccc(NC(=O)c2ccc(C(=O)Nc3ccc(C(=NC)Nc4ccccn4)cc3)cc2)cc1, the T/C (dose: 1.87 mg/kg/injection, schedule: Q01DX015 (ip), vehicle: methylcellulose (MC)) was 95 % of control, the T/C (dose: 3.75 mg/kg/injection, schedule: Q01DX015 (ip), vehicle: methylcellulose (MC)) was 96 % of control and the T/C (dose: 7.5 mg/kg/injection, schedule: Q01DX015 (ip), vehicle: methylcellulose (MC)) was 108 % of control. For the same compound, the T/C (dose: 15.0 mg/kg/injection, schedule: Q01DX015 (ip), vehicle: methylcellulose (MC)) was 101 % of control.

In the case of C=C(Br)CNC(=O)c1ccccc1, the T/C [2] was 97 % of control, the T/C [3] was 108 % of control and the T/C [4] was 90 % of control. The T/C (dose: 100.0 mg/kg/injection, schedule: Q01DX001 (ip), vehicle: Klucel (hydroxypropylcellulose) (HPC)) was 101 % of control and the T/C (dose: 200.0 mg/kg/injection, schedule: Q01DX001 (ip), vehicle: Klucel (hydroxypropylcellulose) (HPC)) was 106 % of control.

With C1CCC2(CC1)COC1(OC2)OCC2(CCCCC2)CO1 the T/C (dose: 100.0 mg/kg/injection, schedule: Q04DX002 (ip), vehicle: Klucel (hydroxypropylcellulose) (HPC)) was 97 % of control, the T/C (dose: 200.0 mg/kg/injection, schedule: Q04DX002 (ip), vehicle: Klucel (hydroxypropylcellulose) (HPC)) was 101 % of control and the T/C (dose: 400.0 mg/kg/injection, schedule: Q04DX002 (ip), vehicle: Klucel (hydroxypropylcellulose) (HPC)) was 90 % of control.

With Cc1c(Cl)cccc1NS(=O)(=O)c1cccc([N+](=O)[O-])c1 the T/C (dose: 100.0 mg/kg/injection, schedule: Q01DX009 (ip), vehicle: saline with Tween-80) was 90 % of control and the T/C (dose: 200.0 mg/kg/injection, schedule: Q01DX009 (ip), vehicle: saline with Tween-80) was 87 % of control.

With NNC(=O)c1cc(Cl)ccn1 the T/C [1] was 96 % of control, the T/C (dose: 200.0 mg/kg/injection, schedule: Q04DX003 (ip), vehicle: saline with Tween-80) was 102 % of control and the T/C (dose: 400.0 mg/kg/injection, schedule: Q04DX003 (ip), vehicle: saline with Tween-80) was 98 % of control.

For Nc1nc(N)c2cc(CNc3ccc(C(=O)NC(CC(=O)O)CC(=O)O)cc3)ccc2n1, the T/C (dose: 6.25 mg/kg/injection, schedule: Q01DX009 (ip), vehicle: saline) was 123 % of control, the T/C (dose: 6.3 mg/kg/injection, schedule: Q01DX009 (ip), vehicle: carboxymethylcellulose (CMC)) was 167 % of control and the T/C (dose: 10.0 mg/kg/injection, schedule: Q01DX009 (ip), vehicle: other) was 157 % of control. The T/C (dose: 12.5 mg/kg/injection, schedule: Q01DX009 (ip), vehicle: carboxymethylcellulose (CMC)) was 152 % of control, the T/C (dose: 25.0 mg/kg/injection, schedule: Q01DX009 (ip), vehicle: carboxymethylcellulose (CMC)) was 180 % of control and the T/C (dose: 25.0 mg/kg/injection, schedule: Q01DX009 (ip), vehicle: other) was 158 % of control. For the same compound, the T/C (dose: 50.0 mg/kg/injection, schedule: Q01DX001 (ip), vehicle: saline) was 109 % of control, the T/C (dose: 50.0 mg/kg/injection, schedule: Q01DX009 (ip), vehicle: carboxymethylcellulose (CMC)) was 117 % of control and the T/C [5] was 216 % of control. The T/C [6] was 196 % of control, the T/C [7] was 114 % of control and the T/C (dose: 100.0 mg/kg/injection, schedule: Q01DX009 (ip), vehicle: carboxymethylcellulose (CMC)) was 105 % of control. For the same compound, the T/C (dose: 100.0 mg/kg/injection, schedule: Q01DX009 (ip), vehicle: other) was 101 % of control, the T/C [8] was 103 % of control and the T/C (dose: 133.0 mg/kg/injection, schedule: Q01DX001 (ip), vehicle: other) was 175 % of control. For the same compound, the T/C [9] was 208 % of control, the T/C (dose: 200.0 mg/kg/injection, schedule: Q01DX009 (ip), vehicle: carboxymethylcellulose (CMC)) was 88 % of control and the T/C (dose: 200.0 mg/kg/injection, schedule: Q01DX009 (ip), vehicle: other) was 86 % of control. For the same compound, the T/C [10] was 97 % of control, the T/C (dose: 300.0 mg/kg/injection, schedule: Q01DX001 (ip), vehicle: other) was 166 % of control and the T/C [11] was 122 % of control. The T/C [12] was 107 % of control and the T/C (dose: 600.0 mg/kg/injection, schedule: Q01DX001 (ip), vehicle: saline) was 152 % of control.

O=S(CS(=O)c1ccccc1)c1ccccc1 (stereo not given) was tested, and the T/C [7] was 100 % of control, the T/C (dose: 200.0 mg/kg/injection, schedule: Q01DX001 (ip), vehicle: saline) was 94 % of control and the T/C (dose: 400.0 mg/kg/injection, schedule: Q01DX001 (ip), vehicle: saline) was 100 % of control.

For CC(=O)NNc1nc(C)cs1, the T/C [1] was 97 % of control.

NC(=O)OCC1OC(n2cnc3c(=O)[nH]c(N)nc32)C(O)C1O (stereo not given) was tested, and the T/C [3] was 94 % of control, the T/C [4] was 98 % of control and the T/C (dose: 100.0 mg/kg/injection, schedule: Q01DX005 (ip), vehicle: saline) was 105 % of control. For the same compound, the T/C (dose: 100.0 mg/kg/injection, schedule: Q01DX009 (ip), vehicle: Klucel (hydroxypropylcellulose) (HPC)) was 94 % of control and the T/C (dose: 200.0 mg/kg/injection, schedule: Q01DX005 (ip), vehicle: saline) was 92 % of control.

For CCCNP(=S)(NCCC)NCCC, the T/C (dose: 50.0 mg/kg/injection, schedule: Q01DX001 (ip), vehicle: other) was 96 % of control, the T/C [6] was 100 % of control and the T/C [9] was 105 % of control. For the same compound, the T/C [12] was 100 % of control.

With COc1ccc2c(c1)C1(C(=O)O)CC=CCC1(C(=O)O)C2 (stereo not given) the T/C (dose: 75.0 mg/kg/injection, schedule: Q01DX001 (ip), vehicle: saline) was 98 % of control, the T/C (dose: 150.0 mg/kg/injection, schedule: Q01DX001 (ip), vehicle: saline) was 98 % of control and the T/C [11] was 96 % of control.

In the case of O=C(Nc1cccc(C(F)(F)F)c1)c1cccc(C(=O)Nc2cccc(C(F)(F)F)c2)c1, the T/C (dose: 12.5 mg/kg/injection, schedule: Q04DX003 (ip), vehicle: saline with Tween-80) was 96 % of control, the T/C (dose: 25.0 mg/kg/injection, schedule: Q04DX003 (ip), vehicle: saline with Tween-80) was 91 % of control and the T/C (dose: 50.0 mg/kg/injection, schedule: Q04DX003 (ip), vehicle: saline with Tween-80) was 90 % of control.

In the case of CCCCC[CH2][Sn]([CH2]CCCCC)([CH2]CCCCC)[NH]S(=O)(=O)c1ccc(C)cc1, the T/C [13] was 87 % of control, the T/C [14] was 105 % of control and the T/C [15] was 94 % of control.

For C=CCNC(=S)Nc1cccc(Cl)c1C, the T/C [2] was 87 % of control, the T/C [3] was 101 % of control and the T/C [4] was 96 % of control. For the same compound, the T/C (dose: 100.0 mg/kg/injection, schedule: Q04DX003 (ip), vehicle: Klucel (hydroxypropylcellulose) (HPC)) was 90 % of control, the T/C (dose: 200.0 mg/kg/injection, schedule: Q04DX003 (ip), vehicle: Klucel (hydroxypropylcellulose) (HPC)) was 100 % of control and the T/C (dose: 400.0 mg/kg/injection, schedule: Q04DX003 (ip), vehicle: Klucel (hydroxypropylcellulose) (HPC)) was 94 % of control.

O=C(/C=C/c1ccccc1Cl)c1ccc(F)cc1 was tested, and the T/C [13] was 94 % of control, the T/C [14] was 94 % of control and the T/C [15] was 97 % of control.

For CC(=O)Nc1cccnc1, the T/C [5] was 101 % of control, the T/C (dose: 50.0 mg/kg/injection, schedule: Q04DX003 (ip), vehicle: saline) was 100 % of control and the T/C [8] was 101 % of control. The T/C [16] was 94 % of control, the T/C [10] was 98 % of control and the T/C [17] was 97 % of control.

With COc1cc2c(cc1OC)C(CN)C2 (stereo not given) the T/C [5] was 101 % of control, the T/C [8] was 103 % of control and the T/C [16] was 116 % of control. The T/C [10] was 89 % of control and the T/C [17] was 119 % of control.
